From US20240050409A1, “Methods and Compositions for Treating Psychotic Disorders” (SOUND PHARMACEUTICALS INCORPORATED, priority 2014, published 2024) come the findings set out here.

The subject of the test is 8-oxo-dG staining in the PFC of NVHL rats. Nature of the test: 8-oxo-dG labeling (DNA oxidation) in PFC of NVHL rats. In kind it is in vivo, Sprague-Dawley rats. An excerpt: To assess oxidative stress, DNA oxidation with 8-oxo-7,8-dihydro-20-deoxyguanine (8-oxo-dG) labeling was quantified. […] 3-NT indicates nitration of proteins due to oxidative and nitrosative stress (Radi, 2004), and its increase in NVHL rats was prevented by NAC treatment during development (as shown in FIGS. 9A and 9B). […] A possible explanation for the levels of oxidative stress detected in the adult PFC following an NVHL is the reduced glutamatergic input from ventral hippocampus during development, as blocking NMDA receptors induces oxidative stress in PVI (Behrens et al., 2007).
To determine the types of interneurons expressing oxidative stress in NVHL rats, 8-oxo-dG with PV, calbindin (CB) and calretinin (CR) was co-labeled. […] About 50% of PVI were co-labeled with 8-oxo-dG, indicating oxidative stress is pervasive in this cell population. A marker of PVI maturation is Wisteria Floribunda agglutinin (WFA), a lectin that recognizes the perineuronal nets (PNN) enwrapping mature cortical PVI. […] PVI may be highly exposed to increased oxidative stress because they make up the majority of fast-spiking interneurons and their high energy metabolism may generate more reactive oxygen species than non-fast spiking neurons.
Animals: Timed-pregnant Sprague-Dawley rats were obtained at gestational days 13-15 from Charles River (Wilmington, MA) and were individually housed with free access to food and water in a temperature- and humidity-controlled environment with a 12:12h light/dark cycle (lights on at 7:00 AM). When pups reached P5, half of the dams received NAC in their drinking water. Pups were left undisturbed until P7-9 when healthy offspring were randomly separated and received either NVHL or sham surgery. At P21, male and female pups were either transcardially perfused with 4% paraformaldehyde for immunocytochemistry or weaned and housed in groups of two to three, counterbalanced across lesion status. NAC treatment lasted throughout adolescence until P50. After reaching adulthood (>P60), animals were either perfused with 4% paraformaldehyde for immunocytochemistry, perfused with artificial cerebrospinal fluid (aCSF) for slice electrophysiology, utilized for in vivo intracellular recordings, or tested for PPI or MMN.
Neonatal ventral hippocampal lesion surgery: Between P7 and P9, pups (15-20 g) received either an excitotoxic lesion of the ventral hippocampus (NVHL) or sham procedure, as previously described (Chambers and Lipska, 2011). Pups were anesthetized with hypothermia and secured to a Styrofoam platform attached to a stereotaxic frame (David Kopf Instruments, Tujunga, CA). […]

As to `CC(=O)N[C@@H](CS)C(=O)O` [NAC, N-acetyl cysteine], the “effect on 8-oxo-dG labeling in PV interneurons” value (NVHL rats, developmental treatment) was “prevented”. The “effect on increase in 8-oxo-dG staining in PFC” value (P21 NVHL rats, drinking water 900 mg/l from P5) was “completely prevented”. Also, under “P61 NVHL rats, drinking water 900 mg/l, P5 to P50”, the “effect on increase in 8-oxo-dG in PFC” value is “prevented”. Further, for the setting “adult NVHL rats, juvenile treatment, to levels comparable to control rats”, the “multiple markers of oxidative stress” value is “decreased”.
